According to patent US8252832B2, “Kinesin inhibitors as cancer therapeutics” (Novartis AG, priority 2007, dated 2012):
Like-named read-outs stand apart in the source and are kept apart here.

Tests used:
Assay in all cases: CellTiter-Glo, NCI60 panel
Type in all cases: cell-based, human
[1] = system: COLO 205; settings: Colon; for GI50: Homo sapiens
Source text: (§1) Identification of tumor types that are the most sensitive to the KSP inhibitors of the present invention can be accomplished using an unbiased approach that uses several cell-based assays. The assays chosen were as follows: • CellTiter-Glo®. This is an assay designed to measure ATP concentration in a cell culture, and can be correlated to cell number. Briefly CellTiter-Glo® (Promega Corporation) is a homogeneous method using the single CellTiter-Glo® reagent to detect ATP wherein ATP in the assay drives the activity of a thermostable luciferase to create a luminescent signal which can then be measured and correlated with the number of viable cells. Briefly, for adherent cells, 1,000 to 5,000 cells/well were plated in 96-well plates (100 μl/well) and let to adhere for 24 hours before being treated with drug. For non-adherent cells, 1,000 to 10,000 cells/well were plated in 96-well plates (100 μl/well) and immediately treated with drug. Drug dilutions were prepared in DMSO at 1000 times the final concentration. These dilutions were then diluted 1/100 in growth media before being added to the cells (11 μl/well) to achieve the desired final concentration. After 48 h in a 37° C. tissue culture incubator, the plates were processed for the CellTiter-Glo®assay according to the manufacturer's instructions. Protocol for a 72 hour cell proliferation assay: The 72 hour assay was performed the same way as the 48 hour assay except for the following modifications: For adherent cells, 500 to 5,000 cells/well were plated in 96-well plates (90 μl/well cell growth media) and left to adhere for 24 hours before being treated with drug. For non-adherent cells, 1,000 to 10,000 cells/well were plated in 96-well plates (90 μl/well cell growth media) and immediately treated with drug. Data values presented represent the concentration of test compound required for a 50% reduction in growth. • LDH release. The Cytotoxicity Detection KitPLUS (LDH) assay (Roche Diagnostics, Manheim, Germany) measures the amount of LDH released in the media by dying cells; LDH catalyzes the conversion of lactate into pyruvate. The enzymatic reaction is coupled to a chemical reaction that uses a tetrazolium salt to form a formazan that is red and can be detected by its absorbance at 490 nm. This assay measures the amount of cell death after drug treatment. Cells were plated at 10,000 cells/well in 96-well plates (100 μl/well). Adherent cells were let to adhere for 24 hours before being treated with drug, whereas non-adherent cells were immediately treated with drug. Drug dilutions were prepared in DMSO at 1000 times the final concentration. These dilutions were then diluted 1/100 in growth media before being added to the cells (11 μl/well) to achieve the desired final concentration. After 48 h in a 37° C. tissue culture incubator, the plates were processed for the Cytotoxicity Detection KitPLUS (LDH) assay according to the manufacturer's instructions. The media only values were subtracted from all the data points before analysis. Data values presented correspond to the compound concentration wherein LDH output is at half maximal level. • Caspase-Glo® 3/7. The Caspase-Glo® 3/7 Assay (Promega Corporation) is a homogeneous luminescent assay that measures caspase-3/7 activities. The assay provides a proluminescent caspase-3/7 DEVD-aminoluciferin substrate and a thermostable luciferase in a reagent optimized for caspase-3/7 activity, luciferase activity and cell lysis. Adding the single Caspase-Glo® 3/7 Reagent results in cell lysis, followed by caspase cleavage of the substrate. This liberates free aminoluciferin, which is consumed by the luciferase, generating a luminescent signal. The signal is proportional to caspase-3/7 activity. Data values presented correspond to the compound concentration wherein caspase 3/7 activity is at half maximal level. […]

[2] = system: HCT-15; settings: Colon; for GI50: Homo sapiens
Source text: as §1

[3] = system: T-47D; settings: Breast; for GI50: Homo sapiens, T47D
Source text: as §1

[4] = system: HCT-116; settings: Colon; for GI50: Homo sapiens
Source text: as §1

[5] = system: HT29; settings: for GI50: Homo sapiens, HT-29, Colon
Source text: as §1

[6] = GI50 in nM, read-out: Log(GI50) (converted)

In the case of CC(C)(C)[C@H](c1nc(-c2cc(F)ccc2F)cn1Cc1ccccc1)N(CC[C@H](N)CF)C(=O)CO [Compound IIa], the “Differential vs mean Log(GI50)” value [1] is reported as −0.669, the GI50 [1, 6] is reported as 10 nM and the GI50 ([1]; read-out: GI50) is reported as 10 nM. For the same compound, the “Differential vs mean Log(GI50)” value [2] was 0.754, the GI50 [2, 6] was 0.378 nM and the GI50 ([2]; read-out: GI50) was 0.378 nM. For the same compound, the “Differential vs mean Log(GI50)” value [3] was −0.669, the GI50 [3, 6] was 10 nM and the GI50 ([3]; read-out: GI50) was 10 nM. For the same compound, the “Differential vs mean Log(GI50)” value [4] was 1.191, the GI50 [4, 6] was 0.138 nM and the GI50 ([4]; read-out: GI50) was 0.138 nM. The “Differential vs mean Log(GI50)” value ([5]; Colon) was −0.669, the GI50 [5, 6] was 10 nM and the GI50 ([5]; read-out: GI50) was 10 nM.
